Measured values: ChEMBL document CHEMBL1134744, “Discovery and parallel synthesis of a new class of cathepsin K inhibitors” (Bioorg Med Chem Lett, 2001)

Legend:
[1] = target: T1, Cathepsin K (Homo sapiens) (UniProt P43235); experiment: (§1) Inhibitory activity against cathepsin K; set-up: concentration or dose not given beside the values; conditions: concentration not given here
T1 sequence (whole entry): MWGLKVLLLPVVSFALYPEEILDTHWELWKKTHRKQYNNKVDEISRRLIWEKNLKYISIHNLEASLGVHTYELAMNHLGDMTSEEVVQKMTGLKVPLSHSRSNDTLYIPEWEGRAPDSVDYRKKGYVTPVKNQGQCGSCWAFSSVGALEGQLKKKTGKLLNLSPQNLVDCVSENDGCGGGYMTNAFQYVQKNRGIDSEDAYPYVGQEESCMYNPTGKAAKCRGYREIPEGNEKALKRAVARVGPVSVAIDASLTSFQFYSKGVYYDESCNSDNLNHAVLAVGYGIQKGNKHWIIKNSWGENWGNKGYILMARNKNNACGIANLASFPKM

Cathepsin K [2] = target: T2, Cathepsin K (Homo sapiens, UniProt P43235); experiment: as §1
T2 sequence (P43235 whole entry): T1 sequence (whole entry)

Cathepsin K [3] = target: T2, Cathepsin K; experiment: Inhibitory activity against Cathepsin K

Row | inhibition [1] | IC50 (Cathepsin K [2]) | Compound | other results
1 | – | 1400 nM | CC[C@H](C)[C@@H](/C=C/c1ccc(Cl)cc1)NC(=O)[C@@H]1CCCCN1CC(=O)c1ccccc1 | –
2 | 2% | – | O=C(CN1CCCC[C@H]1C(=O)Nc1cccc(-c2ccccc2)c1)c1ccccc1 | –
3 | 20% | – | COc1cc(C(=O)CN2CCCC[C@H]2C(=O)N[C@H](/C=C/c2ccccc2)Cc2ccccc2)cc(OC)c1OC | –
4 | – | 840 nM | CC(C)C[C@@H](/C=C/c1ccccc1)NC(=O)[C@@H]1CCCCN1CC(=O)c1ccccc1 | –
5 | – | 590 nM | CC[C@H](C)[C@@H](/C=C/c1ccccc1C)NC(=O)[C@@H]1CCCCN1CC(=O)c1ccccc1 | –
6 | 8% | – | CC[C@H](C)[C@H](NC(=O)[C@@H]1CCCCN1CC(=O)c1ccccc1)C(=O)Nc1ccccc1 | –
7 | – | 740 nM | CC[C@H](C)[C@@H](/C=C/c1ccc(C)cc1)NC(=O)[C@@H]1CCCCN1CC(=O)c1ccccc1 | –
8 | – | 230 nM | CC[C@H](C)[C@@H](/C=C/c1ccccc1)NC(=O)[C@@H]1CCCCN1CC(=O)c1ccccc1 | –
9 | < 1% | – | O=C(CN1CCCC[C@H]1C(=O)Nc1ccc2oc3ccccc3c2c1)c1ccccc1 | –
10 | 26% | – | CC[C@H](C)[C@@H](/C=C/c1ccccn1)NC(=O)[C@@H]1CCCCN1CC(=O)c1ccccc1 | –

Continued, compound first:

Row | Compound | inhibition [1] | IC50 (Cathepsin K [2]) | other results
11 | CC[C@H](C)[C@@H](/C=C/c1ccccc1)NC(=O)[C@@H]1CCCCN1CC(=O)c1cccc([N+](=O)[O-])c1 | 11% | – | –
12 | CC[C@H](C)[C@@H](/C=C/c1ccccc1)NC(=O)[C@@H]1CCCCN1CC(=O)c1c(OC)cccc1OC | – | 700 nM | –
13 | CC(C)[C@@H](/C=C/c1ccccc1)NC(=O)[C@@H]1CCCCN1CC(=O)c1ccccc1 | – | – | IC50 (Cathepsin K [3]): 780 nM
14 | CC[C@H](C)[C@@H](/C=C/c1ccccc1)NC(=O)[C@@H]1CCCCN1CC(=O)c1ccc([N+](=O)[O-])cc1 | 28% | – | –
15 | CCC(=O)CN1CCCC[C@H]1C(=O)N[C@H](/C=C/c1ccccc1)[C@@H](C)CC | 22% | – | –
16 | CC[C@H](C)[C@@H](/C=C/c1ccccc1)NC(=O)[C@@H]1CCCCN1CC(=O)c1ccc(NC(C)=O)cc1 | 42% | – | –
17 | CC[C@H](C)[C@@H](/C=C/c1ccccc1)NC(=O)[C@@H]1CCCCN1CC(=O)c1ccc(Cl)cc1 | – | 280 nM | –
18 | CC[C@H](C)[C@@H](/C=C/c1ccccc1)NC(=O)[C@@H]1CCCCN1CC(=O)c1ccc2c(c1)OCO2 | – | 590 nM | –
19 | COc1cc(C(=O)CN2CCCC[C@H]2C(=O)N[C@H](/C=C/c2ccccc2)CC(C)C)cc(OC)c1OC | – | 1500 nM | –
20 | CC[C@H](C)[C@@H](/C=C/c1ccccc1)NC(=O)[C@@H]1CCCCN1CC(C)=O | 3% | – | –
21 | CC[C@H](C)[C@@H](/C=C/c1ccccc1)NC(=O)[C@@H]1CCCCN1CC(=O)c1ccc(OC)cc1 | – | 410 nM | –
22 | CC[C@H](C)[C@@H](/C=C/c1ccccc1)NC(=O)[C@@H]1C=CCN1CC(=O)c1ccccc1 | 43% | – | –
23 | CC[C@H](C)[C@@H](/C=C/c1ccccc1)NC(=O)[C@@H]1CCCCN1CC(O)c1cc(OC)c(OC)c(OC)c1 (stereo not given in full) | 8% | – | –
24 | CC[C@H](C)[C@@H](/C=C/c1ccncc1)NC(=O)[C@@H]1CCCCN1CC(=O)c1ccccc1 | 8% | – | –
25 | CC[C@H](C)[C@@H](/C=C/c1ccccc1)NC(=O)[C@@H]1Cc2ccccc2CN1CC(=O)c1ccccc1 | 29% | – | –
26 | CC[C@H](C)[C@@H](/C=C/c1ccccc1)NC(=O)[C@@H]1CCCN1CC(=O)c1ccccc1 | 15% | – | –
27 | CC(C)C[C@H](NC(=O)OCc1ccccc1)C(=O)NC1CN(C(=O)[C@H](CC(C)C)NC(=O)OCc2ccccc2)CC1=O (stereo not given in full) | – | – | Ki (Cathepsin K [3]): 2 nM
28 | CC[C@H](C)[C@@H](/C=C/c1ccccc1)NC(=O)[C@@H]1CCCCN1CC(=O)c1ccc(C#N)cc1 | 16% | – | –
29 | CC[C@H](C)[C@@H](/C=C/c1ccccc1)NC(=O)[C@@H]1CCCCN1CC(=O)c1cc(OC)c(OC)c(OC)c1 | – | 1200 nM | Ki (Cathepsin K [2]): 790 nM
